{"source": "ChEMBL document CHEMBL4811283", "about": "“New camptothecin derivatives for generalized oncological chemotherapy: Synthesis, stereochemistry and biology” (Bioorg Med Chem Lett, 2021)", "key": {"A549": {"tested_on": "A549", "assay": "Cytotoxicity against human A549 cells assessed as inhibition of cell growth measured after 72 hrs", "format": "functional, cell-based", "details": "A549, 72 h"}, "CCD-841CoN": {"tested_on": "CCD-841CoN", "assay": "Cytotoxicity against human CCD-841CoN cells assessed as inhibition of cell growth measured after 72 hrs", "format": "cell-based"}, "HT-29": {"tested_on": "HT-29", "assay": "Cytotoxicity against human HT-29 cells assessed as inhibition of cell growth measured after 72 hrs", "format": "functional, cell-based", "details": "HT-29, 72 h"}, "MCF7": {"tested_on": "MCF7", "assay": "Cytotoxicity against human MCF7 cells assessed as inhibition of cell growth measured after 72 hrs", "format": "functional, cell-based", "details": "MCF7, 72 h"}, "HL-60": {"tested_on": "HL-60", "assay": "Cytotoxicity against human HL-60 cells assessed as inhibition of cell growth measured after 72 hrs", "format": "functional, cell-based", "details": "HL-60, 72 h"}}}
{"smiles": "C=c1c2c(CC)c3cc(O)ccc3nc2c2cc3c(c(=O)n12)COC(=O)[C@]3(O)CC", "values": [{"measurement": "IC50", "setting": "A549", "value": 1.94, "unit": "µM"}, {"measurement": "IC50", "setting": "CCD-841CoN", "value": 92.2, "unit": "µM"}, {"measurement": "IC50", "setting": "HT-29", "value": 0.15, "unit": "µM"}]}
{"smiles": "CCc1c2c(nc3ccc(O)cc13)-c1cc3c(c(=O)n1[C@H]2CN1CCCC1)COC(=O)[C@]3(O)CC", "values": [{"measurement": "IC50", "setting": "MCF7", "value": 0.81, "unit": "µM"}, {"measurement": "IC50", "setting": "A549", "value": 0.204, "unit": "µM"}, {"measurement": "IC50", "setting": "CCD-841CoN", "value": 24.4, "unit": "µM"}, {"measurement": "IC50", "setting": "HL-60", "value": 0.011, "unit": "µM"}, {"measurement": "IC50", "setting": "HT-29", "value": 0.598, "unit": "µM"}]}
{"smiles": "CCc1c2c(nc3ccc(O)c(CN4CCC4)c13)-c1cc3c(c(=O)n1[C@@H]2CO)COC(=O)[C@]3(O)CC", "values": [{"measurement": "IC50", "setting": "MCF7", "value": 6.7, "unit": "µM"}, {"measurement": "IC50", "setting": "A549", "value": 1.17, "unit": "µM"}, {"measurement": "IC50", "setting": "CCD-841CoN", "value": "> 1000", "unit": "µM"}, {"measurement": "IC50", "setting": "HL-60", "value": 0.113, "unit": "µM"}, {"measurement": "IC50", "setting": "HT-29", "value": 2.5, "unit": "µM"}]}
{"smiles": "CCc1c2c(nc3ccc(O)cc13)-c1cc3c(c(=O)n1[C@H]2CO)COC(=O)[C@]3(O)CC", "values": [{"measurement": "IC50", "setting": "MCF7", "value": 15.9, "unit": "µM"}, {"measurement": "IC50", "setting": "A549", "value": 4.27, "unit": "µM"}, {"measurement": "IC50", "setting": "CCD-841CoN", "value": 382, "unit": "µM"}, {"measurement": "IC50", "setting": "HL-60", "value": 0.722, "unit": "µM"}, {"measurement": "IC50", "setting": "HT-29", "value": 9.48, "unit": "µM"}]}
{"smiles": "CCc1c2c(nc3ccc(O)c(CN4CCC4)c13)-c1cc3c(c(=O)n1[C@H]2CO)COC(=O)[C@]3(O)CC", "values": [{"measurement": "IC50", "setting": "MCF7", "value": 11.1, "unit": "µM"}, {"measurement": "IC50", "setting": "A549", "value": 5.22, "unit": "µM"}, {"measurement": "IC50", "setting": "CCD-841CoN", "value": "> 1000", "unit": "µM"}, {"measurement": "IC50", "setting": "HL-60", "value": 0.334, "unit": "µM"}, {"measurement": "IC50", "setting": "HT-29", "value": 6.98, "unit": "µM"}]}
{"smiles": "CCc1c2c(nc3ccc(O)c(N(C)CCO)c13)-c1cc3c(c(=O)n1C2)COC(=O)[C@]3(O)CC", "values": [{"measurement": "IC50", "setting": "MCF7", "value": 1.21, "unit": "µM"}, {"measurement": "IC50", "setting": "A549", "value": 0.403, "unit": "µM"}, {"measurement": "IC50", "setting": "CCD-841CoN", "value": 36.1, "unit": "µM"}, {"measurement": "IC50", "setting": "HL-60", "value": 0.009, "unit": "µM"}, {"measurement": "IC50", "setting": "HT-29", "value": 0.15, "unit": "µM"}]}
{"smiles": "CCc1c2c(nc3ccc(O)c(CO)c13)-c1cc3c(c(=O)n1C2)COC(=O)[C@]3(O)CC", "values": [{"measurement": "IC50", "setting": "A549", "value": 11, "unit": "µM"}, {"measurement": "IC50", "setting": "CCD-841CoN", "value": "> 1000", "unit": "µM"}, {"measurement": "IC50", "setting": "HT-29", "value": 0.68, "unit": "µM"}]}
{"smiles": "CCc1c2c(nc3ccc(O)cc13)-c1cc3c(c(=O)n1[C@@H]2CO)COC(=O)[C@]3(O)CC", "values": [{"measurement": "IC50", "setting": "MCF7", "value": 14.9, "unit": "µM"}, {"measurement": "IC50", "setting": "A549", "value": 6.54, "unit": "µM"}, {"measurement": "IC50", "setting": "CCD-841CoN", "value": 62, "unit": "µM"}, {"measurement": "IC50", "setting": "HL-60", "value": 1.89, "unit": "µM"}, {"measurement": "IC50", "setting": "HT-29", "value": 14.8, "unit": "µM"}]}
{"smiles": "CCc1c2c(nc3ccc(O)cc13)-c1cc3c(c(=O)n1[C@@H]2CN1CCCC1)COC(=O)[C@]3(O)CC", "values": [{"measurement": "IC50", "setting": "MCF7", "value": 0.906, "unit": "µM"}, {"measurement": "IC50", "setting": "A549", "value": 0.272, "unit": "µM"}, {"measurement": "IC50", "setting": "CCD-841CoN", "value": 21.8, "unit": "µM"}, {"measurement": "IC50", "setting": "HL-60", "value": 0.007, "unit": "µM"}, {"measurement": "IC50", "setting": "HT-29", "value": 0.493, "unit": "µM"}]}
{"smiles": "CCc1c2c(nc3ccc(O)cc13)-c1cc3c(c(=O)n1C2)COC(=O)[C@]3(O)CC", "note": "[7-ETHYL-10-HYDROXYCAMPTOTHECIN]", "values": [{"measurement": "IC50", "setting": "MCF7", "value": 0.66, "unit": "µM"}, {"measurement": "IC50", "setting": "A549", "value": 0.028, "unit": "µM"}, {"measurement": "IC50", "setting": "CCD-841CoN", "value": 4.98, "unit": "µM"}, {"measurement": "IC50", "setting": "HL-60", "value": 0.002, "unit": "µM"}, {"measurement": "IC50", "setting": "HT-29", "value": 0.02, "unit": "µM"}]}
{"smiles": "CCc1c2c(nc3ccc(OC(=O)N4CCC(N5CCCCC5)CC4)cc13)-c1cc3c(c(=O)n1C2)COC(=O)[C@]3(O)CC", "note": "[IRINOTECAN]", "values": [{"measurement": "IC50", "setting": "MCF7", "value": 14.1, "unit": "µM"}, {"measurement": "IC50", "setting": "A549", "value": 26.7, "unit": "µM"}, {"measurement": "IC50", "setting": "CCD-841CoN", "value": 90.2, "unit": "µM"}, {"measurement": "IC50", "setting": "HL-60", "value": 4.24, "unit": "µM"}, {"measurement": "IC50", "setting": "HT-29", "value": 6.85, "unit": "µM"}]}
